Laboratory results from publication PMC5017749, “Preclinical Metabolism, Pharmacokinetics and In Vivo Analysis of New Blood-Brain-Barrier Penetrant Fingolimod Analogues: FTY720-C2 and FTY720-Mitoxy” (PLoS ONE, 2016).
Read-outs that look alike come from different tables or passages of the source.

Experiments:
[1] = Metabolic stability (intrinsic clearance) in mouse liver microsomes; format: in vitro ADME, mouse (CD-1); conditions: for percent of the remaining compound: after 60 minute incubation
Experimental: (§1) Liver microsomal incubations contained 0.1mg/mL microsomal proteins and 1 μM of FTY720-C2 or FTY720-Mitoxy in 100 mM potassium phosphate buffer (pH 7.4) ± an NADPH regenerating system (3.5 mM glucose 6-phosphate, 1.3 mM NADP^+, and 0.4 units/mL glucose-6-phosphate dehydrogenase). Following incubations, reactions were terminated for analysis after 0, 10, 20, 30, and 60 min by the addition of acetonitrile containing C17 sphingosine (300 ng/mL) as the internal standard. Samples were vigorously mixed and centrifuged at 3,400 rpm for 10 min to pellet precipitated proteins. An aliquot of each supernatant was used for LC/MS analysis, for determination of the remaining FTY720-C2 and FTY720-Mitoxy. Similar incubations were performed using a cocktail solution containing 0.2 μM midazolam and 1 μM diclofenac to determine the metabolic activity of the microsomes as an additional control.
(§2) Samples resulting from liver microsomal incubations were analyzed by LC-MS/MS. Aliquots of the supernatants were injected onto an X-Bridge C18 column (2.1 × 50 mm, 3.5-μm particles) (Waters, Milford, MA), preceded by a SecurityGuard C18 guard column (4.0 × 2.0 mm; Phenomenex Inc.). Separations were accomplished with a gradient of 0.1% acetic acid in water (v/v) versus 0.1% acetic acid in acetonitrile: methanol (75:25, v/v) at a rate of 0.8 mL/min. The eluents were further applied into an equipped API 4000 QTrap mass spectrometer (AB Sciex, Foster City, CA) with electrospray ionization (ESI) interface by two coupled LC-10 AT pumps. Peak area ratios of FTY720-C2 or FTY720-Mitoxy against the C17 sphingosine internal standard were used to determine the amount of parent remaining compared to that at 0 min. The percent of FTY720-C2 or FTY720-Mitoxy remaining was calculated by dividing the peak area ratio obtained at each time point by that obtained at 0 min. The in vitro intrinsic clearance (CLint) was calculated by linear regression of the log percent of compound remaining versus time plots using Microsoft Excel, two independent experiments (n = 2) were performed for each compound and species. Then, the mean and standard deviation (SD), of two values for each condition, were calculated using Microsoft Excel with the “AVERAGE” and “STDEV” functions, respectively.

[2] = Plasma and brain pharmacokinetics after single oral or intravenous dosing of mice; format: in vivo; conditions: for Tmax / half-life: male; for oral bioavailability: single oral dose; for half-life: iv
Experimental: The objectives of this study were to evaluate the pharmacokinetic profiles of FTY720-C2 and FTY720-Mitoxy following single oral and intravenous (IV) dosing of male mice and to determine blood and tissue levels of both compounds at various postdose time points. Male C57BL/6 mice were 8.4 weeks of age and weighed 20.6–24.8 g on the day of dose administration. Each animal was identified by a unique number via an ear tag with a matching cage tag. Mice were administered (two mice per time point) a single equivalent molar dose of either FTY720-C2 (1 mg/kg) or FTY720-Mitoxy (2 mg/kg) by oral or intravenous administration. As the molecular weight of FTY720-Mitoxy (704.72 g/mol) is ~ two times greater than that of FTY720-C2 (349.51 g/mol), the dose level of FTY720-Mitoxy was double that of FTY720-C2. Details of the design showing group assignments, dose groups, dose levels, as well as blood collection and necropsy time points are shown in Table 2. At the appropriate time points after dosing and blood sample collection for bioanalysis, animals were euthanized by CO2 inhalation until unresponsive, followed by decapitation. Brains were rapidly harvested, rinsed with ice cold saline, blotted dry and bisected along the mid-line. The left and right hemispheres of the brain were weighed separately. Each was placed in separate tubes, immediately flash frozen in liquid nitrogen and stored at -70°C prior to evaluation. All samples were labeled with the test facility study number, animal identification number, dose group, date, collection interval, and tissue identity (left or right brain hemisphere). Adrenal glands from each mouse were also collected and flash frozen.
FTY720-C2 and FTY720-Mitoxy concentrations in plasma and brain were determined by LC-MS/MS. Samples were first prepared by liquid-liquid extraction. To 50 μL of plasma or brain homogenate were added 50 μL of 0.1 M NaOH and 50 μL of internal standard solution (C17 sphingosine) in ethanol. Analytes were then extracted into 1 mL of methyl tert-butyl ether:dichloromethane mixture (75:25, v/v) by vortexing for 1 hr and centrifuged. Supernatants were evaporated to dryness under nitrogen. Residues were reconstituted in 150 μL of 50% methanol in water and spin filtered before applied onto XBridge C18 column (3.5-μm particle; Waters, Milford, MA) with a SecurityGuard C18 guard column (4.0 × 2.0 mm; Phenomenex Inc.). Separations were accomplished with a gradient of 0.1% acetic acid in water (v/v) versus 0.1% acetic acid in acetonitrile:methanol (75:25, v/v) at a rate of 0.5 mL/min. The eluents were further applied into an equipped API 4000 QTrap mass spectrometer (AB Sciex, Foster City, CA) with electrospray ionization (ESI) interface by two coupled LC-10 AT pumps, and monitored in multiple reaction monitoring (MRM) mode with precursor to product ion pairs for C17 sphingosine, FTY720-C2, and FTY720-Mitoxy as following: m/z 286.3 to 268.2, m/z 350.3 to 255.2, and m/z 624.4 to 289.2, respectively.
Pharmacokinetic analysis was conducted using WinNonlin Version 6.2 (Pharsight, Mountain View CA), operating as a validated software system. Non-compartmental analysis was conducted using a bolus intravenous administration model for IV dosing and an extravascular administration model for oral dosing. The peak plasma concentration, time to achieve peak plasma concentration, half-life, mean residence time, and area under the plasma or brain concentration-time curve (Cmax, Tmax, T1/2, and AUC) were calculated from mean animal plasma and brain concentrations. Nominal blood collection times were used for pharmacokinetic calculations.

[3] = Metabolic stability (intrinsic clearance) in dog liver microsomes; format: in vitro ADME, dog (Beagle); conditions: for microsomal CLint at 1 μM: Beagle; for percent of the remaining compound: after 60 minute incubation
Experimental: as §1, §2

[4] = Metabolic stability (intrinsic clearance) in monkey liver microsomes; format: in vitro ADME, monkey (Cynomolgus); conditions: for percent of the remaining compound: after 60 minute incubation
Experimental: as §1, §2

[5] = IV administration, sampling 5 min, 8, 24, 48 hr
[6] = oral administration, 1 mg/kg, first sampling time point

With `CCCCCCCCc1ccc(CCC(CO)(CO)NC(C)=O)cc1` [FTY720-C2, N-(1-hydroxy-2-(hydroxymethyl)-4-(4-octylphenyl)butan-2-yl)acetamide] the microsomal CLint at 1 μM ([1]; CD-1, pH 7.4, mouse liver microsomes, 0.1 mg/mL protein, 1 μM, mean of two determinations) was 22.5 ± 2.12 µL/min/mg, the “intrinsic clearance interpreted in words” value ([1]; mouse liver microsomes) was “moderate” and the “percent of the remaining compound” value ([1]; mouse liver microsomes) was 29.5 ± 2.1%. For the same molecule, the “detected in plasma and brain up to (postdose)” value (from here on “detected in plasma and brain up”) [2, 5] was 8 h, the “time to penetrate the blood-brain-barrier after delivery” value ([2]; IV dosing) was at most 5 min and the “brain concentrations compared with plasma at 8 hr postdose” value ([2]; after both IV and oral dosing, 8 hr postdose) was “much higher”. For the same molecule, the Tmax ([2]; C57BL/6, mouse, brain, IV dosing, FTY720-C2 1 mg/kg or FTY720-Mitoxy 2 mg/kg, first sampling time point, read-out: Tmax / time of highest concentration in brain (converted)) was 5 min, the Tmax ([2]; C57BL/6, mouse, plasma, IV dosing, FTY720-C2 1 mg/kg or FTY720-Mitoxy 2 mg/kg, first sampling time point, read-out: Tmax / time of highest concentration in plasma (converted)) was 5 min and the partitioning to brain ([2]; mice) was “preferentially partition to brain”. The oral bioavailability ([2]; mice) was “orally bioavailable”, the “time of highest concentration in brain” value [2, 6] was 1 h and the “time of highest concentration in plasma” value [2, 6] was 1 h. For the same molecule, the “detected in plasma and brain up” value ([2]; oral administration, sampling 1, 8, 24, 48 hr) was 8 h, the microsomal CLint at 1 μM ([3]; pH 7.4, dog liver microsomes, 0.1 mg/mL protein, 1 μM, mean of two determinations) was 6 ± 0.28 µL/min/mg and the “intrinsic clearance interpreted in words” value ([3]; dog liver microsomes) was “low”. The “percent of the remaining compound” value ([3]; dog liver microsomes) was 69.9 ± 0.6%, the “intrinsic clearance interpreted in words” value ([4]; monkey liver microsomes) was “moderate” and the “percent of the remaining compound” value ([4]; monkey liver microsomes) was 30.0 ± 0.3%. For the same molecule, the microsomal CLint at 1 μM ([4]; pH 7.4, monkey liver microsomes, 0.1 mg/mL protein, 1 μM, mean of two determinations) was 20.2 µL/min/mg.

With `CCCCCCCCc1ccc(CCC(CO)(CO)NC(=O)CC[P+](c2ccccc2)(c2ccccc2)c2ccccc2)cc1` [FTY720-Mitoxy, N-(1-hydroxy-2-(hydroxymethyl)-4-(4-octylphenyl)butan-2-yl)-3’-triphenylphosphoniumpropanamide] the microsomal CLint at 1 μM ([1]; CD-1, mouse, liver microsomes, pH 7.4, mouse liver microsomes, 0.1 mg/mL protein, 1 μM, mean of two determinations) was 1.8 µL/min/mg, the “intrinsic clearance interpreted in words” value ([1]; mouse liver microsomes) was “low” and the “Clint (intrinsic clearance)” value ([1]; mouse liver microsomes, 0.1 mg/mL protein, 1 μM, mean of two determinations) was 1.75 ± 1.34 µL/min/mg. For the same molecule, the “percent of the remaining compound” value ([1]; mouse liver microsomes) was 82.5 ± 16.3%, the “detected in plasma and brain up” value [2, 5] was 48 h and the “time to penetrate the blood-brain-barrier after delivery” value ([2]; IV dosing) was at most 5 min. For the same molecule, the “Tmax / time of highest concentration in brain” value ([2]; IV dosing, FTY720-C2 1 mg/kg or FTY720-Mitoxy 2 mg/kg, first sampling time point) was 5 min, the half-life ([2]; mouse, in vivo, 2 mg/kg, IV dosing, 2 mg/kg, read-out: brain elimination half-life (converted)) was 106 min and the half-life ([2]; mouse, in vivo, 2 mg/kg, IV dosing, 2 mg/kg, read-out: plasma elimination half-life (converted)) was 56.4 min. For the same molecule, the half-life ([2]; mouse, in vivo, 2 mg/kg, mice, IV, plasma and brain, read-out: half-lives) was under 120 min, the Tmax ([2]; mouse, in vivo, IV dosing, FTY720-C2 1 mg/kg or FTY720-Mitoxy 2 mg/kg, first sampling time point, read-out: Tmax / time of highest concentration in plasma (converted)) was 5 min and the partitioning to brain ([2]; mice) was “preferentially partition to brain”. For the same molecule, the oral bioavailability ([2]; mice) was “not orally bioavailable”, the “detection in plasma or brain following oral dosing” value ([2]; oral, 2 mg/kg) was “not detected” and the microsomal CLint at 1 μM ([3]; dog, liver microsomes, pH 7.4, dog liver microsomes, 0.1 mg/mL protein, 1 μM, mean of two determinations) was 1.4 µL/min/mg. The “intrinsic clearance interpreted in words” value ([3]; dog liver microsomes) was “low”, the “Clint (intrinsic clearance)” value ([3]; dog liver microsomes, 0.1 mg/mL protein, 1 μM, mean of two determinations) was 1.35 ± 1.48 µL/min/mg and the “percent of the remaining compound” value ([3]; dog liver microsomes) was 112.5 ± 5.0%. The “intrinsic clearance interpreted in words” value ([4]; monkey liver microsomes) was “high”, the “Clint (intrinsic clearance)” value ([4]; monkey liver microsomes, 0.1 mg/mL protein, 1 μM, mean of two determinations) was 135.3 ± 10.61 µL/min/mg and the “percent of the remaining compound” value ([4]; monkey liver microsomes) was 1.4 ± 0.3%. For the same molecule, the microsomal CLint at 1 μM ([4]; monkey, liver microsomes, pH 7.4, monkey liver microsomes, 0.1 mg/mL protein, 1 μM, mean of two determinations) was 135 µL/min/mg.
